Measurements from ChEMBL document CHEMBL1201861, “Genomics of Drug Sensitity in Cancer screening data, Wellcome Trust Sanger Institute”.
pIC50: −log10 of the molar value.

Key:
Assay in all cases: cells
[1] = test system: PC-14; assay type: functional, cell-based, Homo sapiens; details: Homo sapiens, PC-14;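 also: cell viability assay measuring inhibition of PC-14 cell growth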
Description: SANGER: Inhibition of human PC-14 cell growth in a cell viability assay.

[2] = test system: KYSE-450; assay type: functional, cell-based; details: Homo sapiens;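 also: cell growth inhibition measured by a viability assay in human KYSE-450 cells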
Description: SANGER: Inhibition of human KYSE-450 cell growth in a cell viability assay.

[3] = test system: HT1197; assay type: functional, cell-based, Homo sapiens, HT-1197; details: Homo sapiens, HT1197
Description: SANGER: Inhibition of human HT-1197 cell growth in a cell viability assay.

[4] = test system: OMC-1; assay type: functional, cell-based, Homo sapiens; details: Homo sapiens, OMC-1;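 also: growth inhibition of the OMC-1 cell line, measured by a cell viability assay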
Description: SANGER: Inhibition of human OMC-1 cell growth in a cell viability assay.

[5] = test system: Calu-3; assay type: functional, cell-based, Homo sapiens; details: Homo sapiens, Calu-3;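 also: growth inhibition of human Calu-3 cells, determined with a cell viability assay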
Description: SANGER: Inhibition of human Calu-3 cell growth in a cell viability assay.

[6] = test system: KP-4; assay type: functional, cell-based, Homo sapiens; details: Homo sapiens, KP-4; read-out: IC50;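 also: human KP-4 cells, with growth inhibition read out through a cell viability assay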
Description: SANGER: Inhibition of human KP-4 cell growth in a cell viability assay.

[7] = test system: SCC-9; assay type: functional, cell-based, Homo sapiens; details: Homo sapiens, SCC-9;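 also: Read-out is a cell viability assay, with values giving inhibition of cell growth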
Description: SANGER: Inhibition of human SCC-9 cell growth in a cell viability assay.

[8] = test system: BT-474; assay type: functional, cell-based, Homo sapiens; details: Homo sapiens, BT-474
Description: SANGER: Inhibition of human BT-474 cell growth in a cell viability assay.

[9] = test system: A-427; assay type: functional, cell-based, Homo sapiens; details: Homo sapiens, A-427;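 also: growth inhibition of human A-427 cells, read out by a cell viability assay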
Description: SANGER: Inhibition of human A427 cell growth in a cell viability assay.

[10] = test system: DOHH-2; assay type: functional, cell-based; details: Homo sapiens;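 also: growth inhibition of human DOHH-2 cells, read out with a cell viability assay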
Description: SANGER: Inhibition of human DOHH-2 cell growth in a cell viability assay.

[11] = test system: HMV-2 cell line; assay type: functional, cell-based, Homo sapiens; details: Homo sapiens, HMV-2;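 also: growth inhibition of HMV-II cells, read out with a cell viability assay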
Description: SANGER: Inhibition of human HMV-II cell growth in a cell viability assay.

[12] = test system: NCI-H520; assay type: functional, cell-based, Homo sapiens; details: Homo sapiens, NCI-H520;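 also: growth inhibition of NCI-H520 cells, measured by a cell viability assay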
Description: SANGER: Inhibition of human NCI-H520 cell growth in a cell viability assay.

[13] = test system: A2780; assay type: functional, cell-based, Homo sapiens; details: Homo sapiens, A2780;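 also: growth inhibition of A2780 cells, read out with a cell viability assay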
Description: SANGER: Inhibition of human A2780 cell growth in a cell viability assay.

[14] = test system: SK-MES-1; assay type: functional, cell-based, Homo sapiens; details: Homo sapiens, SK-MES-1;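 also: growth inhibition of human SK-MES-1 cells, read out with a cell viability assay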
Description: SANGER: Inhibition of human SK-MES-1 cell growth in a cell viability assay.

[15] = test system: SW1710; assay type: functional, cell-based, Homo sapiens; details: Homo sapiens, SW1710;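 also: growth inhibition of SW1710 cells, determined with a cell viability assay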
Description: SANGER: Inhibition of human SW1710 cell growth in a cell viability assay.

[16] = test system: A101D; assay type: functional, cell-based, Homo sapiens; details: Homo sapiens, A101D;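 also: growth inhibition of the cell line, measured with a viability assay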
Description: SANGER: Inhibition of human A101D cell growth in a cell viability assay.

[17] = test system: Ramos-2G6-4C10; assay type: functional, cell-based; details: Homo sapiens;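 also: growth inhibition of the cell line, measured by a cell viability read-out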
Description: SANGER: Inhibition of human Ramos-2G6-4C10 cell growth in a cell viability assay.

[18] = test system: T-24; assay type: functional, cell-based, Homo sapiens; details: Homo sapiens, T-24;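 also: growth inhibition of T-24 cells, read out with a cell viability assay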
Description: SANGER: Inhibition of human T-24 cell growth in a cell viability assay.

[19] = test system: NCI-H1838; assay type: functional, cell-based, Homo sapiens; details: Homo sapiens, NCI-H1838;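 also: growth inhibition of NCI-H1838 cells, determined with a cell viability readout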
Description: SANGER: Inhibition of human NCI-H1838 cell growth in a cell viability assay.

[20] = test system: GP5d; assay type: functional, cell-based, Homo sapiens; details: Homo sapiens, GP5d;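 also: growth inhibition of human GP5d cells, read out with a cell viability assay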
Description: SANGER: Inhibition of human GP5d cell growth in a cell viability assay.

[21] = test system: HCC1419; assay type: functional, cell-based, Homo sapiens; details: Homo sapiens, HCC1419;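 also: growth inhibition of human HCC1419 cells, read out as cell viability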
Description: SANGER: Inhibition of human HCC1419 cell growth in a cell viability assay.

[22] = test system: C-33-A; assay type: functional, cell-based, Homo sapiens; details: Homo sapiens, C-33-A;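 also: cell viability assay measuring growth inhibition of C-33-A cells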
Description: SANGER: Inhibition of human C-33-A cell growth in a cell viability assay.

[23] = test system: NCI-H1755; assay type: functional, cell-based, Homo sapiens; details: Homo sapiens, NCI-H1755;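 also: cell viability readout used to measure growth inhibition of NCI-H1755 cells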
Description: SANGER: Inhibition of human NCI-H1755 cell growth in a cell viability assay.

[24] = test system: HOP-62; assay type: functional, cell-based, Homo sapiens; details: Homo sapiens, HOP-62;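 also: cell growth inhibition determined with a viability assay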
Description: SANGER: Inhibition of human HOP-62 cell growth in a cell viability assay.

[25] = test system: MeWo; assay type: functional, cell-based, Homo sapiens; details: Homo sapiens, MeWo;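 also: growth inhibition of MeWo cells, determined by a cell viability readout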
Description: SANGER: Inhibition of human Mewo cell growth in a cell viability assay.

[26] = test system: SK-UT-1; assay type: functional, cell-based, Homo sapiens; details: Homo sapiens, SK-UT-1;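 also: growth inhibition of SK-UT-1 cells, measured by a cell viability assay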
Description: SANGER: Inhibition of human SK-UT-1 cell growth in a cell viability assay.

[27] = test system: U-266; assay type: functional, cell-based; details: Homo sapiens
Description: SANGER: Inhibition of human U-266 cell growth in a cell viability assay.

[28] = test system: UMC-11; assay type: functional, cell-based, Homo sapiens; details: Homo sapiens, UMC-11;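 also: growth inhibition of UMC-11 cells, read out with a cell viability assay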
Description: SANGER: Inhibition of human UMC-11 cell growth in a cell viability assay.

[29] = test system: LCLC-103H cell line; assay type: functional, cell-based, Homo sapiens; details: Homo sapiens, LCLC-103H
Description: SANGER: Inhibition of human LCLC-103H cell growth in a cell viability assay.

[30] = test system: LS-1034; assay type: functional, cell-based, Homo sapiens; details: Homo sapiens, LS-1034
Description: SANGER: Inhibition of human LS-1034 cell growth in a cell viability assay.

[31] = test system: OVCAR-4; assay type: functional, cell-based, Homo sapiens; details: Homo sapiens, OVCAR-4;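 also: growth inhibition of human OVCAR-4 cells, measured with a cell viability assay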
Description: SANGER: Inhibition of human OVCAR-4 cell growth in a cell viability assay.

[32] = test system: SKG-IIIa; assay type: functional, cell-based, Homo sapiens; details: Homo sapiens, SKG-IIIa;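 also: cell growth inhibition, read out with a cell viability assay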
Description: SANGER: Inhibition of human SKG-IIIa cell growth in a cell viability assay.

[33] = test system: NB10; assay type: functional, cell-based, Homo sapiens; details: Homo sapiens, NB10;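 also: growth inhibition of NB10 cells, read out by a cell viability assay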
Description: SANGER: Inhibition of human NB10 cell growth in a cell viability assay.

[34] = test system: BE-13; assay type: functional, cell-based; details: Homo sapiens;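 also: growth inhibition of human BE-13 cells, measured with a cell viability assay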
Description: SANGER: Inhibition of human BE-13 cell growth in a cell viability assay.

[35] = test system: H4; assay type: functional, cell-based; details: Homo sapiens
Description: SANGER: Inhibition of human H4 cell growth in a cell viability assay.

[36] = test system: SK-NEP-1; assay type: functional, cell-based; details: Homo sapiens;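 also: growth inhibition of human SK-NEP-1 cells, read out by a cell viability assay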
Description: SANGER: Inhibition of human SK-NEP-1 cell growth in a cell viability assay.

[37] = test system: LK-2; assay type: functional, cell-based, Homo sapiens; details: Homo sapiens, LK-2;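 also: growth inhibition of LK-2 cells, read out with a viability assay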
Description: SANGER: Inhibition of human LK-2 cell growth in a cell viability assay.

[38] = test system: SW756; assay type: functional, cell-based, Homo sapiens; details: Homo sapiens, SW756;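 also: growth inhibition of human SW756 cells, read out with a cell viability assay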
Description: SANGER: Inhibition of human SW756 cell growth in a cell viability assay.

[39] = test system: MHH-ES-1; assay type: functional, cell-based, Homo sapiens; details: Homo sapiens, MHH-ES-1;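 also: cell growth inhibition measured by a cell viability assay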
Description: SANGER: Inhibition of human MHH-ES-1 cell growth in a cell viability assay.

[40] = test system: SCC-4; assay type: functional, cell-based, Homo sapiens; details: Homo sapiens, SCC-4;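 also: growth inhibition of human SCC-4 cells, read out as cell viability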
Description: SANGER: Inhibition of human SCC-4 cell growth in a cell viability assay.

[41] = test system: HL-60; assay type: functional, cell-based; details: Homo sapiens;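 also: growth inhibition of human HL-60 cells, read out with a cell viability assay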
Description: SANGER: Inhibition of human HL-60 cell growth in a cell viability assay.

[42] = test system: ChaGo-K-1; assay type: functional, cell-based; details: Homo sapiens;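 also: growth inhibition of ChaGo-K-1 cells, read out with a cell viability assay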
Description: SANGER: Inhibition of human ChaGo-K-1 cell growth in a cell viability assay.

[43] = test system: HCC1569; assay type: functional, cell-based, Homo sapiens; details: Homo sapiens, HCC1569;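 also: growth inhibition of human HCC1569 cells, read out with a cell viability assay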
Description: SANGER: Inhibition of human HCC1569 cell growth in a cell viability assay.

[44] = test system: CaR-1; assay type: functional, cell-based, Homo sapiens; details: Homo sapiens, CaR-1;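 also: growth inhibition of human CaR-1 cancer cells, read out with a cell viability assay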
Description: SANGER: Inhibition of human CaR-1 cell growth in a cell viability assay.

[45] = test system: KNS-42; assay type: functional, cell-based, Homo sapiens; details: Homo sapiens, KNS-42;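 also: growth inhibition of KNS-42 cells, read out with a cell viability assay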
Description: SANGER: Inhibition of human KNS-42 cell growth in a cell viability assay.

[46] = test system: BXPC-3; assay type: functional, cell-based, Homo sapiens; details: Homo sapiens, BXPC-3;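 also: growth inhibition of human BxPC-3 cells, read out by a cell viability assay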
Description: SANGER: Inhibition of human BxPC-3 cell growth in a cell viability assay.

[47] = test system: ES3; assay type: functional, cell-based, Homo sapiens; details: Homo sapiens, ES3;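 also: growth inhibition of ES3 cells, read out with a cell viability assay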
Description: SANGER: Inhibition of human ES3 cell growth in a cell viability assay.

[48] = test system: CWR22R; assay type: functional, cell-based, Homo sapiens; details: Homo sapiens, 22Rv1;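 also: growth inhibition of 22Rv1 cells, read out with a cell viability assay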
Description: SANGER: Inhibition of human 22RV1 cell growth in a cell viability assay.

[49] = test system: U-251; assay type: functional, cell-based, Homo sapiens; details: Homo sapiens, U-251;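 also: growth inhibition of human U-251 cells, read out through a cell viability assay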
Description: SANGER: Inhibition of human U251 cell growth in a cell viability assay.

[50] = test system: HCC1806; assay type: functional, cell-based, Homo sapiens; details: Homo sapiens, HCC1806;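 also: growth inhibition of the cancer cell line, determined with a cell viability assay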
Description: SANGER: Inhibition of human HCC1806 cell growth in a cell viability assay.

COc1cc([C@@H]2c3cc4c(cc3[C@@H](O[C@@H]3O[C@@H]5CO[C@@H](C)O[C@H]5[C@H](O)[C@H]3O)[C@H]3COC(=O)[C@H]23)OCO4)cc(OC)c1O [ETOPOSIDE]
pIC50 [1]: 5.01
pIC50 [2]: 5.43
pIC50 [3]: < 4.80
pIC50 [4]: < 4.80
pIC50 [5]: 6.30
pIC50 [6]: 6.38
pIC50 [7]: 6.07
pIC50 [8]: < 4.80
pIC50 [9]: 6.99
pIC50 [10]: 6.46
pIC50 [11]: 6.25
pIC50 [12]: 5.09
pIC50 [13]: 5.96
pIC50 [14]: 6.09
pIC50 [15]: 6.29
pIC50 [16]: 5.92
pIC50 [17]: 5.00
pIC50 [18]: < 4.80
pIC50 [19]: < 4.80
pIC50 [20]: 5.23
pIC50 [21]: < 4.80
pIC50 [22]: 6.06
pIC50 [23]: < 4.80
pIC50 [24]: 6.28
pIC50 [25]: 5.17
pIC50 [26]: 7.37
pIC50 [27]: < 4.80
pIC50 [28]: < 4.80
pIC50 [29]: 6.19
pIC50 [30]: < 4.80
pIC50 [31]: < 4.80
pIC50 [32]: < 4.80
pIC50 [33]: 4.80
pIC50 [34]: 6.30
pIC50 [35]: 6.53
pIC50 [36]: 5.72
pIC50 [37]: 5.85
pIC50 [38]: 5.53
pIC50 [39]: 6.33
pIC50 [40]: 5.14
pIC50 [41]: 5.64
pIC50 [42]: 5.42
pIC50 [43]: 5.45
pIC50 [44]: 5.07
pIC50 [45]: 4.86
pIC50 [46]: < 4.80
pIC50 [47]: 6.20
pIC50 [48]: 5.82
pIC50 [49]: 6.30
pIC50 [50]: 5.33

Cc1cnc(-c2cnc(NCCNc3ccc(C#N)cn3)nc2-c2ccc(Cl)cc2Cl)[nH]1 [LADUVIGLUSIB]
pIC50 [1]: < 5.59
pIC50 [2]: < 5.59
pIC50 [3]: < 5.59
pIC50 [4]: < 5.59
pIC50 [5]: < 5.59
pIC50 [6]: < 5.59
pIC50 [7]: < 5.59
pIC50 [8]: < 5.59
pIC50 [9]: < 5.59
pIC50 [10]: < 5.59
pIC50 [11]: < 5.59
pIC50 [12]: < 5.59
pIC50 [13]: < 5.59
pIC50 [14]: < 5.59
pIC50 [15]: < 5.59
pIC50 [16]: < 5.59
pIC50 [17]: < 5.59
pIC50 [18]: < 5.59
pIC50 [19]: < 5.59
pIC50 [20]: < 5.59
pIC50 [21]: < 5.59
pIC50 [22]: < 5.59
pIC50 [23]: < 5.59
pIC50 [24]: < 5.59
pIC50 [25]: < 5.59
pIC50 [26]: < 5.59
pIC50 [27]: < 5.59
pIC50 [28]: < 5.59
pIC50 [29]: < 5.59
pIC50 [30]: < 5.59
pIC50 [31]: < 5.59
pIC50 [32]: < 5.59
pIC50 [33]: < 5.59
pIC50 [34]: < 5.59
pIC50 [35]: < 5.59
pIC50 [36]: < 5.59
pIC50 [37]: < 5.59
pIC50 [38]: < 5.59
pIC50 [39]: < 5.59
pIC50 [40]: < 5.59
pIC50 [41]: < 5.59
pIC50 [42]: < 5.59
pIC50 [43]: < 5.59
pIC50 [44]: < 5.59
pIC50 [45]: < 5.59
pIC50 [46]: < 5.59
pIC50 [47]: < 5.59
pIC50 [48]: < 5.59
pIC50 [49]: < 5.59
pIC50 [50]: < 5.59

CN(c1ncccc1CNc1nc(Nc2ccc3c(c2)CC(=O)N3)ncc1C(F)(F)F)S(C)(=O)=O [PF-00562271]
pIC50 [1]: < 5.59
pIC50 [2]: < 5.59
pIC50 [3]: < 5.59
pIC50 [4]: < 5.59
pIC50 [5]: < 5.59
pIC50 [6]: < 5.59
pIC50 [7]: < 5.59
pIC50 [8]: < 5.59
pIC50 [9]: < 5.59
pIC50 [10]: < 5.59
pIC50 [11]: < 5.59
pIC50 [12]: < 5.59
pIC50 [13]: < 5.59
pIC50 [14]: < 5.59
pIC50 [15]: 5.79
pIC50 [16]: < 5.59
pIC50 [17]: < 5.59
pIC50 [18]: < 5.59
pIC50 [19]: < 5.59
pIC50 [20]: < 5.59
pIC50 [21]: < 5.59
pIC50 [22]: < 5.59
pIC50 [23]: < 5.59
pIC50 [24]: < 5.59
pIC50 [25]: < 5.59
pIC50 [26]: 5.84
pIC50 [27]: < 5.59
pIC50 [28]: < 5.59
pIC50 [29]: 5.81
pIC50 [30]: < 5.59
pIC50 [31]: < 5.59
pIC50 [32]: < 5.59
pIC50 [33]: < 5.59
pIC50 [34]: < 5.59
pIC50 [35]: < 5.59
pIC50 [36]: < 5.59
pIC50 [37]: < 5.59
pIC50 [38]: < 5.59
pIC50 [39]: 5.75
pIC50 [40]: < 5.59
pIC50 [41]: < 5.59
pIC50 [42]: < 5.59
pIC50 [43]: < 5.59
pIC50 [44]: < 5.59
pIC50 [45]: < 5.59
pIC50 [46]: 5.63
pIC50 [47]: < 5.59
pIC50 [48]: < 5.59
pIC50 [49]: 5.76
pIC50 [50]: < 5.59

CCC1=C[C@@H]2CN(C1)Cc1c([nH]c3ccccc13)[C@@](C(=O)OC)(c1cc3c(cc1OC)N(C)[C@H]1[C@@](O)(C(=O)OC)[C@H](OC(C)=O)[C@]4(CC)C=CCN5CC[C@]31[C@@H]54)C2 [VINORELBINE]
pIC50 [1]: 8.49
pIC50 [2]: 8.01
pIC50 [3]: < 7.19
pIC50 [4]: < 7.19
pIC50 [5]: 7.74
pIC50 [6]: 8.57
pIC50 [7]: 8.69
pIC50 [8]: 7.55
pIC50 [9]: 8.51
pIC50 [10]: 8.30
pIC50 [11]: 8.32
pIC50 [12]: 8.73
pIC50 [13]: 8.20
pIC50 [14]: 8.24
pIC50 [15]: 8.63
pIC50 [16]: 8.06
pIC50 [17]: 8.35
pIC50 [18]: < 7.19
pIC50 [19]: < 7.19
pIC50 [20]: 8.11
pIC50 [21]: < 7.19
pIC50 [22]: 8.14
pIC50 [23]: 7.76
pIC50 [24]: 8.72
pIC50 [25]: 7.82
pIC50 [26]: 8.65
pIC50 [27]: 7.76
pIC50 [28]: < 7.19
pIC50 [29]: 8.85
pIC50 [30]: < 7.19
pIC50 [31]: 8.76
pIC50 [32]: < 7.19
pIC50 [33]: < 7.19
pIC50 [34]: 7.91
pIC50 [35]: 8.11
pIC50 [36]: 8.05
pIC50 [37]: 7.90
pIC50 [38]: < 7.19
pIC50 [39]: 8.41
pIC50 [40]: 8.59
pIC50 [41]: < 7.19
pIC50 [42]: 8.17
pIC50 [43]: 8.31
pIC50 [44]: 7.23
pIC50 [45]: 8.10
pIC50 [46]: 8.41
pIC50 [47]: 7.55
pIC50 [48]: 8.06
pIC50 [49]: 8.16
pIC50 [50]: 7.62
